Experimental data published in patent US20060165987A1, “Stealthy polymeric biodegradable nanospheres and uses thereof” (priority 2002, published 2006).

Columns and labels:
[1] = Organ distribution by fluorescence microscopy; type: in vivo; details: rats, after IV injection of nanospheres containing rhodamine, image analysis
Method: 0.5 ml was taken at each time step. Plasma levels of rhodamine were measured by fluorescence detection. […] Organs were examined by fluorescence microscopy.

[2] = In vitro Rhodamine release (dialysis bag, phosphate buffer); type: physicochemical; details: 37° C.
Method: The in vitro Rhodamine release profiles from the (-PLA-PEG-PLA-)n multiblock NS were determined as follows: NS were precisely weighed and suspended in 10 ml of phosphate buffer solution. The NS suspension was introduced into a dialysis membrane bag (Spectra/por™, Molecular weight cut off: 2000-4000, Spectrum Medical Industries, Inc., CA, USA) that was placed in 150 ml of phosphate buffer. This solution was stirred at 37° C. At pre-determined time intervals, 3 ml aliquots of the release medium were withdrawn from the release medium. The release of Rhodamine was monitored using a spectrofluorometer at an excitation wavelength of […] and emission wavelength of 554 nm. The sample was replaced in the release medium. The samples were analyzed by fluorescence since sensitivity will be needed for the incoming blood samples analysis.

[3] = lifetime of free rhodamine; cited from earlier work

Rhodamine accumulation in the organs [1]: No Rhodamine accumulation
time of release [2]: ≤ 30 min
SMILES: CCN(CC)c1ccc2c(-c3ccccc3C(=O)O)c3ccc(=[N+](CC)CC)cc-3oc2c1 [Rhodamine, Rhodamine B]
t1/2 in the body [3]: 3 h
